Laboratory results as given in patent US20090318426A1, “USE OF FLUMAZENIL IN THE MANUFACTURE OF A MEDICAMENT FOR THE TREATMENT OF DEPRESSIVE DISORDERS” (priority 2006, published 2009).

How the values were obtained:
[1] = system: patients presenting a depressive disorder; assay: Clinical observation of mood, attention and sleep after administration of flumazenil; assay type: in vivo, human; conditions: for changes in mood: three patients
Procedure: (§1) Three patients presenting a depressive disorder were subjected to treatment.
(§2) Flumazenil was administered in doses of 0.2 mg every 3 minutes (up to a total of 2 mg/day). […] Before starting the first administration of flumazenil, a test consisting of the administration of a bolus of 0.1 mg of flumazenil was conducted to evaluate the reaction of the subject.

[2] = system: patients presenting a depressive disorder; conditions: in vivo
Procedure: as §1
During the assessment prior to the admission, a thorough psychopathological and medical evaluation was conducted first thing in the morning (9:00 AM). The medical examination included an electrocardiogram and a complete blood analysis, in which the different cell series (red blood cells, white blood cells and platelets) and the biochemical profile (glucose, creatinine, urea, cholesterol and the fractions thereof, triglycerides, alkaline phosphatase, GOT, GPT, GGT, LDH, total proteins, etc.) were studied.
Flumazenil was administered in doses of 0.2 mg every 3 minutes (up to a total of 2 mg/day). This quantity per dose was established to reduce as much as possible undesirable side effects related to possible interactions with other drugs or psychopathologies. Before starting the first administration of flumazenil, a test consisting of the administration of a bolus of 0.1 mg of flumazenil was conducted to evaluate the reaction of the subject.

[3] = system: patients presenting a depressive disorder; assay: SCL-90-R (Symptom Checklist 90 Revised) scale in patients treated with flumazenil; assay type: in vivo, human; conditions: for SCL-90-R at the end: after third administration of flumazenil 2 mg/day, 0.2 mg every 3 minutes
Procedure: as §1, §2

With `CCOC(=O)c1ncn2c1CN(C)C(=O)c1cc(F)ccc1-2` [Flumazenil, 8-fluoro-5,6-dihydro-5-methyl-6-oxo-4H-imidazol[1,5-α][1,4]benzodiazepine-3-carboxylic acid ethyl ester] the “mood of the treated patients” value ([1]; 2 mg/day divided into doses of 0.2 mg every 3 minutes) was “substantially improves the mood”, the “attention, concentration and other superior faculties” value ([1]; after third administration) was “improvement of attention, concentration and other superior faculties being more evident” and the existing sleep disorders ([1]; after third administration) was “completely corrected”. The “sleep (early waking)” value ([1]; patient P01, first night after first administration) was “did not occur on this first night”, the “sleep (difficulty in falling asleep)” value ([1]; patient P03, first night after first administration) was “fell asleep early in the night” and the changes in mood ([1]; after first administration, with respect to time of admission) was “feeling of wellbeing and more calmness”. The changes in mood ([1]; after second administration) was “better mood”, the “time until induced improvement reaches a clinical level” value ([1]; treatment of depressive disorders) was “less than one week” and the blood pressure values [2] was “remained within the range of normal”. The cardiovascular values [2] was “remained within normal parameters”, the “cardiovascular values (heart rate and blood pressure)” value [2] was “did not undergo significant changes” and the heart rate values [2] was “did not undergo any significant increases”. The secondary symptoms [2] was “Secondary symptoms did not occur”, the “symptoms associated to administration” value [2] was “no symptoms associated to such administration” and the SCL-90-R depression values ([3]; after third administration, versus start) was “reduction in the depression values”. For the same molecule, the “SCL-90-R at the end” value ([3]; patient P01 (associated cocaine consumption), SCL-90-R at the start 78) was 0, the “SCL-90-R at the end” value ([3]; patient P02 (associated cocaine consumption), SCL-90-R at the start 48) was 30 and the “SCL-90-R at the end” value ([3]; patient P03 (associated alcohol consumption), SCL-90-R at the start 92) was 25.
